Test results reported in patent publication US11225499B2, “Chiral platinum complex, method for preparing the same, and method for using the same” (Hefei University of Technology, priority 2019, dated 2022).

Experiments:
[1] = tested on: KB (nasopharyngeal carcinoma)
[2] = tested on: Human oral cancer cells KB-VIN; experiment: Anti-cancer activity, KB-VIN cells; assay type: cell-based; conditions: KB-VIn (anti-drug-resistant nasopharyngeal carcinoma)

For “[1,4-(4R)-diphenyl-2-oxazolinyl benzene] platinum nitrate complex [Platinum complex (I)]”, the “inhibitory activity ED50” value [1] was under 10.0 µg/mL and the “inhibitory activity ED50” value [2] was under 10.0 µg/mL.
